Test results: article PMC11883425, “The synthesis and investigation of novel 3-benzoylbenzofurans and pyrazole derivatives for anti-HIV activity” (RSC Medicinal Chemistry, 2025)
Where two headings read alike, the source gives them in different places.

Tests used:
[1] = tested on: HIV-1 subtype C pseudoviruses; conditions: cited from earlier work
HIV-1 CAP210 pseudovirus = experiment: HIV-1 whole virus inhibition assay, CAP210 pseudovirus (luciferase, TZM-bl cells); assay type: cell-based
Protocol: (§1) The HIV pseudoviruses were produced from the plasmids that were kindly donated by Dr Mthunzi-Kufa (CSIR, South Africa). Competent DH5α cells and STBL2 cells were transformed with envelope (CAP210.2.00.E8 and Q23.17) and backbone plasmid (HIV-1 SG3 ΔEnv) through heat-shock at 42 °C for 90 seconds and cooled in ice for 5 minutes. The transformed cells were grown in Luria Bertani medium containing 100 μg mL^−1 ampicillin and glycerol stocks were prepared. The transformed cells were grown at 37 °C in a 200 rpm shaking incubator overnight and the plasmids were isolated from the cells using a GeneJET plasmid Miniprep Kit (ThermoFisher Scientific Inc). The purity of the isolated plasmids was assessed for purity using Nanodrop. The HEK 293T cells were co-transfected with the backbone (10 μg) and envelope plasmids (5 μg) using the PolyFect Transfection Reagent (QIAGEN N.V) for 8–12 hours and the transfected cells were grown for 48 hours producing pseudoviruses which were collected, and stocks stored at −80 °C.
(§2) The compounds were serial diluted from 100 to1.56 μM in 96 well plates (Separation Scientific SA (Pty) Ltd) and incubated with either CAP210 or Q23 pseudoviruses (200 TCID50) and incubated for 1 hour. The TZM-bl cells (1 × 10^5 cells per mL containing 7.5 μg mL^−1 DEAE-dextran) were added and incubated for 48 hours. The 96 well plates were centrifuged, and the supernatant was removed leaving only 50 μL in each well. The Bright-Glo™ Luciferase substrate (Anatech Instruments (Pty) Ltd) (50 μL) was added to each well and incubated for 2 minutes in the dark and chemiluminescence readings were taken in a Corning® 96-well white polystyrene plate using a SpectraMax® Paradigm® Multi-Mode Microplate Reader.

CAP210 pseudovirus = experiment: Time of drug addition assay, CAP210 pseudovirus in TZM-bl cells; assay type: cell-based, HIV-1; conditions: 3 μM, added 0, 2, 4, 6, 8 hours post-infection
Protocol: Fig. 5 Time of addition assay of CAP210 HIV infection treated with active compounds. TZM-bl cells were infected with CAP210 pseudoviruses and treated with compounds at various hours post-infection. NVP, 3g, and 4b were used at 3 μM, while 5f and 5h were used at 25 μM. The bars represent the mean ± SEM obtained from three independent experiments.
TZM-bl cells (1 × 10^5 cells per mL containing 7.5 μg mL^−1 DEAE-dextran) were infected with CAP210 pseudovirus at 400 TCID50 and incubated at 37 °C for 48 hours. The compounds were added to the wells at various time points (0, 2, 4, 6, and 8 hours) post-infection. […] After 48 hours, the cells were centrifuged at 1200 × g for 5 minutes, culture media was removed, leaving 50 μL, and Bright-Glo substrate (50 μL) was added to detect luciferase activity for 2 minutes at 37 °C. Inhibition of HIV pseudoviruses by active compounds was detected by reading for chemiluminescence using a Corning® 96-well white polystyrene using the SpectraMax® Paradigm® Multi-Mode Microplate Reader.

HIV-1 Q23 pseudovirus = experiment: HIV-1 whole virus inhibition assay, Q23 pseudovirus (luciferase, TZM-bl cells); assay type: cell-based
Protocol: as §1, §2

various HIV-1 subtypes = conditions: literature reports; read-out: IC50 against various HIV-1 subtypes; cited from earlier work

Cc1ccnc2c1NC(=O)c1cccnc1N2C1CC1 [NVP, nevirapine, reference compound]
IC50 [1]: 30 nM
IC50 (HIV-1 CAP210 pseudovirus; TZM-bl, 48 h, read-out: IC50 (μM) CAP210, CAP210 pseudovirus, TZM-bl cells, 48 hours): 0.1 ± 0.002 µM
inhibition of CAP210 infection (HIV-1 CAP210 pseudovirus; all tested concentrations): 99%
inhibition of HIV infection by time of addition (CAP210 pseudovirus): inhibit HIV infections for up to 8 hours
IC50 (HIV-1 Q23 pseudovirus; TZM-bl, 48 h, read-out: IC50 (μM) Q23, Q23 pseudovirus, TZM-bl cells, 48 hours): < 0.11 µM
inhibition of Q23 infection (HIV-1 Q23 pseudovirus; all tested concentrations): 99%
IC50 (HIV-1 Q23 pseudovirus; read-out: IC50 (μM) Q23, Q23 pseudovirus, TZM-bl cells, 48 hours): 0.11 ± 0.004 µM
IC50 (various HIV-1 subtypes): ~30 nM
